Data on 6 compounds can be found in patent publication US12037339B2, “Substituted imidazoles as GLP-1 receptor agonists” (Eccogene Inc., priority 2020, dated 2024).

Series [1] has as its target (Homo sapiens, UniProt P43220). As to the kind of experiment: h-GLP-1 activity assay (cAMP HTRF, HEK293 cells with stable expression of human GLP-1). As to conditions: relative EC50, 10 nM human GLP-1 set as 100% response, 30 min at 37° C. In kind it is cell-based. Summed up:
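HEK293 cells stably expressing human GLP-1 receptor construct exposed to compound 30 min at 37 °C in buffer with 0.1% BSA and 0.5 mM IBMX; cAMP measured by HTRF against a cAMP standard curve. 10 nM human GLP-1 set as 100%; relative EC50 from 4-parameter fit.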
Background: In TR-FRET formats the signal depends on donor and acceptor labels being close together.

Another series addresses T1, human OATP1B1 (Homo sapiens, UniProt Q9Y6L6).
T1 sequence (Q9Y6L6 1-691): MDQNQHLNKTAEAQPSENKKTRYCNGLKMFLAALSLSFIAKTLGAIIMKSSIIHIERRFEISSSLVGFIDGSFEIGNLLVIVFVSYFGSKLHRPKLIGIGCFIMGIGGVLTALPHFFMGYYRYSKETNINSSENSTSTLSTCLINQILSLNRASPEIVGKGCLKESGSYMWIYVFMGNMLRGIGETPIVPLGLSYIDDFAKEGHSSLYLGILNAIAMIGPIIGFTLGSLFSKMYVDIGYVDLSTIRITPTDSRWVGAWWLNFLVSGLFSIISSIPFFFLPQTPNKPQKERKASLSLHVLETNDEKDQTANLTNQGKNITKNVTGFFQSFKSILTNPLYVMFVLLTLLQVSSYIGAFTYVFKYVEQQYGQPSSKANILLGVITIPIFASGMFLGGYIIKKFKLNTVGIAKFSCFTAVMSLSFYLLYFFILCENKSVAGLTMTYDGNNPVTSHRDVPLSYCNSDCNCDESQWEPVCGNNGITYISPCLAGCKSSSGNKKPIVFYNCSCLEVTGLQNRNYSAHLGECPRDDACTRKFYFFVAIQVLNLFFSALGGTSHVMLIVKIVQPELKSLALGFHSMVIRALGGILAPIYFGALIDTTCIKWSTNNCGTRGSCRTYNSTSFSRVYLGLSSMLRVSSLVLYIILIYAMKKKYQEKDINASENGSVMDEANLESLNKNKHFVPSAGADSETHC
As to the kind of experiment: OATP1B1 inhibition assay (HEK293 cells over-expressing human OATP1B1, substrate estradiol 17-β-D-glucuronide). In kind it is cell-based. As to conditions: 30 min pre-incubation, 10 min coincubation with estradiol 17-β-D-glucuronide. As to the method:
HEK293 cells over-expressing human OATP1B1 were used for determining the inhibitory effect of compounds of the application on OATP1B1-mediated transportation. Cells were seeded at a density of 400,000 cells per well in 24-well plates. When reaching confluence of 80˜90%, cells were washed with pre-warmed assay buffer and then pre-incubated with serially diluted test compounds or negative control (NC) or positive inhibitor (PC, Rifampicin) for 30 min, followed by coincubation with the same test compound and OATP1B1 substrate estradiol 17-β-D-glucuronide for 10 min. Cells were washed with pre-cooled buffer, and lysed by freeze-thaw cycles. After extraction by mixture of […] of methanol, the substrate concentration was determined by LC-MS/MS, and protein concentration was determined by BCA method. The substrate transport velocity U is calculated as U=Clysate/(P*T), where Clysate is substrate concentration in lysate, P is protein concentration in lysate, and T is incubation time. Relative transport activity Y is calculated as Y=UTA/UNC. The IC50 value of the tested compounds was calculated by fitting Y to compound concentration using a 4-parameter non-linear regression routine in Prism.

Series [2] in a line: Pharmacokinetics after oral gavage in fasted SD rats. It is filed as in vivo. As to conditions: rat, 5 mg/kg, plasma. As to the method:
Compounds of the present application were formulated in 10% DMSO/10%/Cremophor EL/15% PEG400/65% 100 mM Glycine-NaOH pH 10, and administered via oral gavage (P0) at the dosages of 5 or 10 mg per kilogram body weight in fasted SD rats. Plasma samples were collected at 0.25, 0.5, 1, 2, 4, 6, 8, and 24 hours post dosing. Compound concentration was determined by LC-MS and pharmacokinetics parameters were calculated by WinNonlin 8.2 using Non-Compartmental Analysis model.

A value given as a limit tells only on which side of the number the result lay.

Sequence of (Homo sapiens, UniProt P43220) (P43220 24-463): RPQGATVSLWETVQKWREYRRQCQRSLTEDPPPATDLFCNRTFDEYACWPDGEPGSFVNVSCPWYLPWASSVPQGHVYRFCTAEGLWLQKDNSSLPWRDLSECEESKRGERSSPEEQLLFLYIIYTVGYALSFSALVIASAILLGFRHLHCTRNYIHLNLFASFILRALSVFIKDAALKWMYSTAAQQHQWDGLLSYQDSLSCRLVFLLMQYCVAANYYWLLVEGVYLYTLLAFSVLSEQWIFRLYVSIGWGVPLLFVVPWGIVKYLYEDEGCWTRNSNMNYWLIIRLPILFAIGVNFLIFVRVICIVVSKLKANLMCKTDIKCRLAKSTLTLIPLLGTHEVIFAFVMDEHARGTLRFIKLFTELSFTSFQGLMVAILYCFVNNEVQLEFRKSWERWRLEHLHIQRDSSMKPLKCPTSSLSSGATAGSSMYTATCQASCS

The compound `C[C@H]1c2c(nn(-c3ccc(F)c(C4CC4)c3)c2-n2ccn(-c3ccc4c(cnn4C)c3F)c2=O)CCN1C(=O)c1cc2cc([C@@H]3CCOC(C)(C)C3)ccn2c1C1(c2noc(=O)[nH]2)CC1` (single isomer, unassigned) [Compound 73] gave an EC50 in series [1] of less than 20 nM. Also, the IC50 on human OATP1B1 is more than 1000 nM. In series [2], this compound yielded an area under the curve (AUC) of 10200 ng·h/mL, a Cmax of 1700 ng/mL and a bioavailability of 90%.
On to `C[C@H]1c2c(nn(-c3ccc(F)c(C4CC4)c3)c2-n2ccn(-c3ccc4c(cnn4C)c3F)c2=O)CCN1C(=O)c1cn2cc([C@H]3CCOC(C)(C)C3)cc(F)c2c1C1(c2noc(=O)[nH]2)CC1` (single isomer, unassigned) [Compound 91], for which, in series [1], the EC50 is less than 20 nM. For the same compound, the IC50 on human OATP1B1 is more than 1000 nM. In series [2], this compound registered an AUC of 2660 ng·h/mL, a Cmax of 738 ng/mL and a bioavailability of 22%.
On the same counts, the results for `Cc1cc(-n2nc3c(c2-n2ccn(-c4ccc5c(cnn5C)c4F)c2=O)[C@H](C)N(C(=O)c2cn4cc([C@@H]5CCOC(C)(C)C5)ccc4c2C2(c4noc(=O)[nH]4)CC2)CC3)cc(C)c1F` (single isomer, unassigned) [Compound 19] are less than 20 nM, more than 1000 nM, 3000 ng·h/mL, 572 ng/mL and 26%.
In turn, `C[C@H]1c2c(nn(-c3ccc(F)c(C4CC4)c3)c2-n2ccn(-c3ccc4c(cnn4C)c3F)c2=O)CCN1C(=O)c1cn2cc([C@@H]3CCOC(C)(C)C3)ccc2c1C1(c2noc(=O)[nH]2)CC1` (single isomer, unassigned) [Compound 76] yielded a concentration for a half-maximal effect (EC50) in series [1] of less than 20 nM. Besides, on human OATP1B1, the IC50 was more than 1000 nM. In series [2], this compound had an AUC of 5320 ng·h/mL, a Cmax of 962 ng/mL and a bioavailability of 30%.
As to `Cc1cc(-n2nc3c(c2-n2ccn(-c4ccc5c(cnn5C)c4F)c2=O)[C@H](C)N(C(=O)c2cc4cc([C@@H]5CCOC(C)(C)C5)ccn4c2C2(c4noc(=O)[nH]4)CC2)CC3)cc(C)c1F` (single isomer, unassigned) [Compound 10], the EC50 in series [1] is less than 20 nM. Further, the IC50 on human OATP1B1 was more than 1000 nM.
In series [1], `C[C@H]1c2c(nn(-c3ccc(F)c(C4CC4)c3)c2-n2ccn(-c3ccc4c(cnn4C)c3F)c2=O)CCN1C(=O)c1cn2nc([C@@H]3CCOC(C)(C)C3)ccc2c1C1(c2noc(=O)[nH]2)CC1` (single isomer, unassigned) [Compound 90] came in with an EC50 of less than 20 nM. Further, the IC50 at human OATP1B1 is more than 1000 nM. For the same compound, in series [2], the AUC stood at 3340 ng·h/mL, the Cmax was found to be 1370 ng/mL and the bioavailability was 59%.

The term EC50 denotes the concentration at which the effect is half-maximal. A word on the IC50: it is the point on the concentration scale where inhibition reaches its midpoint. A word on the AUC: it is concentration integrated over time. High values mean more exposure, low ones less exposure. In general, Cmax refers to the maximum level reached in the sampled fluid or tissue. The bioavailability is the share of a dose that reaches the circulation, judged against a reference dose that is usually intravenous. A high value points to good availability.
